Experimental data published in ChEMBL document CHEMBL1201862, “PubChem BioAssay data set” (2004).
The source made the active and inactive calls. Cut-off read from the data, not from the text of the source: actives have a measured EC50 and inactives only a lower limit.

Experiments:
[1] = target: T1, Heat shock factor protein 1 (Mus musculus, UniProt P38532); assay: decrease of HSF1-responsive luciferase luminescence – cell-based, NIH3T3, dose retest, confirmation (AID 2382); type: functional;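 note: NIH3T3 fibroblasts with HSF1-driven luciferase reporter stressed by proteasome inhibitor MG132; luminescence from HSF1-driven luciferase expression after 8 hours of MG132 stress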
T1 sequence (P38532 whole entry): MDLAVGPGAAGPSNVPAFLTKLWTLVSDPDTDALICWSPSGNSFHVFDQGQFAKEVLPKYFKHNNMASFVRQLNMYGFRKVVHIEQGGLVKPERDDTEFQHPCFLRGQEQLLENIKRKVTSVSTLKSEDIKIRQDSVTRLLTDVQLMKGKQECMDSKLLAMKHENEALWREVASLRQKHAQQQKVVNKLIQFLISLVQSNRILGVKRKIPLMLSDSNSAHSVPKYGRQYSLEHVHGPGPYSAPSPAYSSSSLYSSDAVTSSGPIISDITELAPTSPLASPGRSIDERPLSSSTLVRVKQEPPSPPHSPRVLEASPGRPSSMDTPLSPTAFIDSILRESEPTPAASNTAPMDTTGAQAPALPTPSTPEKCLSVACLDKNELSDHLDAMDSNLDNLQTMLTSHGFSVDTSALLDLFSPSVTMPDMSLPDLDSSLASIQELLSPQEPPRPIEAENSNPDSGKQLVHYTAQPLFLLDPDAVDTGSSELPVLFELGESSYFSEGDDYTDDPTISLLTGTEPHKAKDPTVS

[2] = Trypanosoma cruzi growth suppression in host cells – NIH3T3 host cells, beta-gal luminescence, confirmation (AID 2044); type: functional, cell-based;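 note: intracellular parasites grown in NIH/3T3 mouse fibroblasts as host cells; luminescent beta-galactosidase reporter signal from transgenic T. cruzi replicating inside host cells; inhibitors lower the luminescence signal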
[3] = NIH3T3 cell viability loss – ATP luminescence, mouse fibroblasts, counter-screen, dose response (AID 2010); type: functional, cell-based;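 note: cells exposed to compound for about 90 hours before reading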

Structure (SMILES)	EC50 [1]	EC50 [2]	EC50 [3]
NC(=O)c1ccsc1NC(=O)C1CCCCC1	> 195 µM (not active)		
Cc1c(-c2ccccc2)[n+]([O-])c2c([n+]1[O-])CCC2	> 195 µM (not active)		
CCCCn1c(SCC(=O)NCc2ccco2)nc2c(sc3ccccc32)c1=O	> 195 µM (not active)		
Oc1nc2ccccc2n2cnnc12	> 195 µM (not active)		
CCOC(=O)CSc1ccc(C(=O)NCCCN2CCOCC2)cc1[N+](=O)[O-]	> 195 µM (not active)		
CSc1nc(SCC(=O)NC(c2ccccc2)c2ccccc2)c2c3c(sc2n1)CN(C)CC3		0.237 µM (active)	> 60 µM (not active)
COc1ccc(OC)c(C2/C(=C(\O)c3ccccc3)C(C)=Nc3nc4ccccc4n32)c1 (configuration not stated)		1.51 µM (active)	> 60 µM (not active)
COc1ccccc1C(=O)NCCC(=O)NNC(=O)Cn1ccc(C(F)(F)F)n1	> 195 µM (not active)		
Cc1cc(/C=N/N2CCN(C)CC2)c(C)n1-c1ccccc1F		1.81 µM (active)	> 60 µM (not active)
Cc1c(C(=O)NCc2ccc3c(c2)OCO3)sc2nc(-c3ccccc3)cn12	> 195 µM (not active)		
COc1cc2c(-c3ccccc3)c(C)oc2cc1/C=N/NC(N)=S		0.102 µM (active)	> 60 µM (not active)
CC1CC(c2ccccc2)n2nc(NC(=O)c3cccs3)nc2N1 (configuration not stated)	> 195 µM (not active)		
O=C(O)CC1SC(=O)N(Cc2ccccc2)C1=O (configuration not stated)	> 195 µM (not active)		
CCCCc1ccc(NC(S)=NCc2cccs2)cc1		2.6 µM (active)	> 60 µM (not active)
CCOC(=O)N1CCN(CC(O)COCCC23CC4CC(CC(C4)C2)C3)CC1 (configuration not stated)		1.16 µM (active)	> 30 µM (not active)
C/C(=N/NC(=S)Nc1cccc(C)c1)c1cccc([N+](=O)[O-])c1		1.63 µM (active)	> 60 µM (not active)
O=C(CN1CC=C(c2ccccc2)CC1)NC(=O)NCc1ccccc1	> 195 µM (not active)		

Structure (SMILES)	EC50 [1]	EC50 [2]	EC50 [3]
Cc1cc(C)n(C(=O)CNC(=O)Cc2ccccc2)n1	> 195 µM (not active)		
COc1ccc(S(=O)(=O)NCC(c2cccnc2)N2CCN(C)CC2)cc1OC (configuration not stated)	> 195 µM (not active)		
CCC(C)C(NC(=O)C1CCC(=O)N1C(=O)OCc1ccccc1)C(=O)NC(C(=O)N1CCCC1C(N)=O)C(C)CC (configuration not stated)	> 195 µM (not active)		
CCc1nc(SCC(=O)NCCc2ccc(OC)c(OC)c2)c2c(=O)n(C)c(=O)n(C)c2n1	> 195 µM (not active)		
O=C(c1ccc(Cl)cc1Cl)C1(n2cncn2)Oc2ccccc2C1O (configuration not stated)		0.535 µM (active)	18 µM (active)
NC(=O)COC(=O)c1ccccc1Oc1ccccc1	> 195 µM (not active)		
NC=C1C(=O)N(c2ccccc2)C(=O)N(c2ccccc2)C1=O	> 195 µM (not active)		
Cc1ccc(NC(=O)CCN2CCCCC2)cc1	4.53 µM (active)		
COc1ccc(N2C(=O)CC(c3ccc(OC(C)C)cc3)C2=O)cc1 (configuration not stated)	> 195 µM (not active)		
CCNC(=O)NC(=O)c1csc([N+](=O)[O-])c1		0.415 µM (active)	> 30 µM (not active)
O=C(c1ccco1)N(Cc1cc2ccccc2nc1O)C1CCCCC1	> 195 µM (not active)		
CC(C)CN(C(=O)COC(=O)c1ccc([N+](=O)[O-])s1)c1c(N)n(Cc2ccccc2)c(=O)[nH]c1=O		1.06 µM (active)	4.8 µM (active)
C=CCOc1ccccc1CN1CCCC(CCC(=O)N(C)CCc2ccccn2)C1 (configuration not stated)		0.412 µM (active)	> 60 µM (not active)
CCN(CC)P(=O)(Nc1ccc(C)cc1Br)c1ccc(N(C)C)cc1NC(=O)c1ccco1 (configuration not stated)		2.27 µM (active)	> 60 µM (inconclusive)
CCN(CC)CCOCCOc1cc(C)c(Cl)c(C)c1		0.408 µM (active)	9.47 µM (active)
CCOP(=O)(OCC)c1nc(-c2cccc3ccccc23)oc1NCc1ccc(OC)cc1		2.45 µM (active)	> 60 µM (not active)
